# In patent US6358706B1, “DNA encoding human alpha1G-C T-Type calcium channel” (Ortho-McNeil Pharmaceutical, Inc., priority 1999, dated 2002):
# Like-named read-outs stand apart in the source and are kept apart here.
# Tests used:
# [1] = biological target: T1, human calcium channel alpha1G-c (Homo sapiens, UniProt O43497); experiment: two-electrode voltage clamp of Xenopus oocytes expressing human calcium channel alpha1G-c; type: cell-based; settings: for block of peak current: 200 μM, clamped at −100 mV between test pulses; for block of peak human alpha1G-c currents / effect on peak human alpha1G-c currents: 100 μM
# T1 construct: first reported cloning of a full length DNA molecule encoding the; expressed in transfected cells; host or cells: Xenopus laevis oocytes injected with cRNA transcribed from pGEM HE
# Method: Xenopus laevis oocytes were prepared and injected using standard methods previously described and known in the art (Fraser, S. P. et al. (1993)). Ovarian lobes from adult female Xenopus laevis (Nasco, Fort Atkinson, Wis.) were teased apart, rinsed several times in nominally Ca-free saline containing: 82.5 mM NaCl, 2.5 mM KCl, 1 mM MgCl2, 5 mM HEPES, adjusted to pH 7.0 with NaOH (OR-2), and gently shaken in OR-2 containing 0.2% collagenase Type 1 (ICN Biomedicals, Aurora, Ohio) for 2-5 hours. When approximately 50% of the follicular layers were removed, Stage V and VI oocytes were selected and rinsed in media consisting of 75% OR-2 and 25% ND-96. The ND-96 contained: 100 mM NaCl, 2 mM KCl, 1 mM MgCl2, 1.8 mM CaCl2, 5 mM HEPES, 2.5 mM Na pyruvate, gentamicin (50 ug/ml), adjusted to pH 7.0 with NaOH. […] The synthesized cRNA was precipitated with ammonium acetate and isopropanol, and resuspended in 50 μl nuclease-free water. cRNA was quantified using formaldehyde gels (1% agarose, 1×MOPS , 3% formaldehyde) against RNA markers (Gibco BRL, 0.24-9.5 Kb).
# Oocytes were injected with 50 nl of the human calcium channel alpha1G-c cRNA (about 600 ng). Control oocytes were injected with 50 nl of water. Oocytes were incubated in ND-96 before analysis for expression of the human calcium channel alpha1G-c. Incubations and collagenase digestion were carried out at room temperature. Injected oocytes were maintained in 48 well cell culture clusters (Costar; Cambridge, Mass.) at 18° C. Whole cell agonist-induced currents were measured 3-6 days after injection with a conventional two-electrode voltage clamp (GeneClamp500, Axon Instruments, Foster City, Calif.) using standard methods previously described and known in the art (Dascal, N. (1987)). The microelectrodes were filled with 3 M KCl, which had resistances of 1 and 2 MΩ. Cells were continuously perfused with ND96 at 2-5 mi/min at room temperature unless indicated. In some experiments, cells were bathed in a 40 mM Ba saline containing (in mM): 40 BaCl2, 2 KCl, 36 TEA-Cl, 5 4-AP and 5 HEPES, pH 7.6. Membrane voltage was clamped at −100 mV unless indicated.
# Oocytes were bathed in ND96,
# [2] = biological target: T2, human alpha1H (Homo sapiens, UniProt O95180); settings: cited from earlier work; for IC50: expressed in oocytes
# T2 construct: host or cells: oocytes
# [3] = test system: mouse alpha1G; settings: cited from earlier work
# [4] = test system: T type currents from guinea pig or rat ventrobasal thalamic neurons; design: maximal block: dose or concentration left out as unconfirmed; settings: cited from earlier work
# [5] = biological target: L-type current; settings: neurons from one-day-old rats; cited from earlier work
# [6] = test system: T-type calcium channels from dorsal root ganglion neurons; settings: neurons from one-day-old rats, cited from earlier work
# [7] = test system: LVCC in hippocampal CA3 neurons; settings: 250 μM or 1 mM; cited from earlier work
# [8] = test system: T-type calcium channels; settings: range over cell types; read-out: EC50's depending on the cell type; cited from earlier work
# T2 sequence (O95180 whole entry): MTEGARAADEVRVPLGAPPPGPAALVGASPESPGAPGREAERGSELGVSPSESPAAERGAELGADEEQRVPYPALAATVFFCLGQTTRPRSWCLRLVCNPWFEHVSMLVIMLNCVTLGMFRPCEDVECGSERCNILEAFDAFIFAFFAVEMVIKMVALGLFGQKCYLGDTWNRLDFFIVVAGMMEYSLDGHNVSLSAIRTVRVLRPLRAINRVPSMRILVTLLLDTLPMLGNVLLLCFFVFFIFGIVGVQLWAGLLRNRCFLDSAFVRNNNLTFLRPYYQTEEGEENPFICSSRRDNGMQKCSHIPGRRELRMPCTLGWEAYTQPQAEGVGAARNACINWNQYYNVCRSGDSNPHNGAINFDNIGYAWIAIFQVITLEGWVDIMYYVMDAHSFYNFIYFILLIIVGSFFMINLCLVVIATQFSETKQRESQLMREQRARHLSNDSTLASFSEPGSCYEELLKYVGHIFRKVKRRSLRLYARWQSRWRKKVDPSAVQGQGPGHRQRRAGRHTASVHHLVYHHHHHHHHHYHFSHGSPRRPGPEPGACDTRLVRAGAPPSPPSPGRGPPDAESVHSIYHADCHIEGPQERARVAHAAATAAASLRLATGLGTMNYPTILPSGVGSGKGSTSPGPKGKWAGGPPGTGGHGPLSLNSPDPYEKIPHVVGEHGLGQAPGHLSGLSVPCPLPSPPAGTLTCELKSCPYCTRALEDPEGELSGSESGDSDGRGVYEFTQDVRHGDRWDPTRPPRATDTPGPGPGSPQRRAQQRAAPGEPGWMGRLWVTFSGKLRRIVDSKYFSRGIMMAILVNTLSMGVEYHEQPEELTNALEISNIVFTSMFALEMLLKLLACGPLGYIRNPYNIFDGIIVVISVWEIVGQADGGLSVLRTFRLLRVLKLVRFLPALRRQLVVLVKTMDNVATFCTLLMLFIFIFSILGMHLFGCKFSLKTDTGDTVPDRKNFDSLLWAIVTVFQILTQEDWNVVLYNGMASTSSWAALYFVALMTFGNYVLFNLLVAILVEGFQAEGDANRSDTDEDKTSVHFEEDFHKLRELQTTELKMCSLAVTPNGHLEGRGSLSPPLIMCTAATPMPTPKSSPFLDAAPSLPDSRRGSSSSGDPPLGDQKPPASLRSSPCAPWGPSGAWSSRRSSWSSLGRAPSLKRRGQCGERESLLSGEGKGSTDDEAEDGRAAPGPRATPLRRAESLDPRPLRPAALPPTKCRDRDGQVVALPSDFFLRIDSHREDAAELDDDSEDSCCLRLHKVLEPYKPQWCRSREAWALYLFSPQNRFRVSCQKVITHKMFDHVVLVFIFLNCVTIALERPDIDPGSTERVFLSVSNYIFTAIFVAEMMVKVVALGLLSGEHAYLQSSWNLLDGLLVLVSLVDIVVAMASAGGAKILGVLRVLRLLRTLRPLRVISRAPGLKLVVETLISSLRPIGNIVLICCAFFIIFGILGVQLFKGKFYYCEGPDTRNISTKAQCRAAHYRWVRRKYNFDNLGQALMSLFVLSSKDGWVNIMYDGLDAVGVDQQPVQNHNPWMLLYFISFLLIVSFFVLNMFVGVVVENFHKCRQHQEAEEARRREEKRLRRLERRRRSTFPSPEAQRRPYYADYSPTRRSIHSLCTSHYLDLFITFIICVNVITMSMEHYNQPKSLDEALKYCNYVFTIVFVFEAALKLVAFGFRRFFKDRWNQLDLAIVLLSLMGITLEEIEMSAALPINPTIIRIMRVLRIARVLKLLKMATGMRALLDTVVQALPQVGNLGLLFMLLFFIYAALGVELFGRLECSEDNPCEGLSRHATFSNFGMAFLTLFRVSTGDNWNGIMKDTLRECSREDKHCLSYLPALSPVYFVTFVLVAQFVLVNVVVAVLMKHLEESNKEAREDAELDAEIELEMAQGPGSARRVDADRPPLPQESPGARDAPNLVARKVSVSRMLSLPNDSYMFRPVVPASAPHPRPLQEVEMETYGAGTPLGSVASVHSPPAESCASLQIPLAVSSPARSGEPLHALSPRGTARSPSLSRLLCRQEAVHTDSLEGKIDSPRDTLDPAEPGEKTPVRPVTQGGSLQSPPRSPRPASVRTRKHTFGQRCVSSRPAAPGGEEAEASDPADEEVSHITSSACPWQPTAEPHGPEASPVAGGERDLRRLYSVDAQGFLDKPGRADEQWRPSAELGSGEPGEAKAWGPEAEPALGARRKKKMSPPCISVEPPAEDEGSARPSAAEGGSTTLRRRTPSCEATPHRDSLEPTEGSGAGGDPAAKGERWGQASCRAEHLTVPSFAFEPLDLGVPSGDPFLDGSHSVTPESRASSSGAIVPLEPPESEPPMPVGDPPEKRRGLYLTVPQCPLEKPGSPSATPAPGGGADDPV
# T1 sequence (O43497 1-2273 isoform O43497-6): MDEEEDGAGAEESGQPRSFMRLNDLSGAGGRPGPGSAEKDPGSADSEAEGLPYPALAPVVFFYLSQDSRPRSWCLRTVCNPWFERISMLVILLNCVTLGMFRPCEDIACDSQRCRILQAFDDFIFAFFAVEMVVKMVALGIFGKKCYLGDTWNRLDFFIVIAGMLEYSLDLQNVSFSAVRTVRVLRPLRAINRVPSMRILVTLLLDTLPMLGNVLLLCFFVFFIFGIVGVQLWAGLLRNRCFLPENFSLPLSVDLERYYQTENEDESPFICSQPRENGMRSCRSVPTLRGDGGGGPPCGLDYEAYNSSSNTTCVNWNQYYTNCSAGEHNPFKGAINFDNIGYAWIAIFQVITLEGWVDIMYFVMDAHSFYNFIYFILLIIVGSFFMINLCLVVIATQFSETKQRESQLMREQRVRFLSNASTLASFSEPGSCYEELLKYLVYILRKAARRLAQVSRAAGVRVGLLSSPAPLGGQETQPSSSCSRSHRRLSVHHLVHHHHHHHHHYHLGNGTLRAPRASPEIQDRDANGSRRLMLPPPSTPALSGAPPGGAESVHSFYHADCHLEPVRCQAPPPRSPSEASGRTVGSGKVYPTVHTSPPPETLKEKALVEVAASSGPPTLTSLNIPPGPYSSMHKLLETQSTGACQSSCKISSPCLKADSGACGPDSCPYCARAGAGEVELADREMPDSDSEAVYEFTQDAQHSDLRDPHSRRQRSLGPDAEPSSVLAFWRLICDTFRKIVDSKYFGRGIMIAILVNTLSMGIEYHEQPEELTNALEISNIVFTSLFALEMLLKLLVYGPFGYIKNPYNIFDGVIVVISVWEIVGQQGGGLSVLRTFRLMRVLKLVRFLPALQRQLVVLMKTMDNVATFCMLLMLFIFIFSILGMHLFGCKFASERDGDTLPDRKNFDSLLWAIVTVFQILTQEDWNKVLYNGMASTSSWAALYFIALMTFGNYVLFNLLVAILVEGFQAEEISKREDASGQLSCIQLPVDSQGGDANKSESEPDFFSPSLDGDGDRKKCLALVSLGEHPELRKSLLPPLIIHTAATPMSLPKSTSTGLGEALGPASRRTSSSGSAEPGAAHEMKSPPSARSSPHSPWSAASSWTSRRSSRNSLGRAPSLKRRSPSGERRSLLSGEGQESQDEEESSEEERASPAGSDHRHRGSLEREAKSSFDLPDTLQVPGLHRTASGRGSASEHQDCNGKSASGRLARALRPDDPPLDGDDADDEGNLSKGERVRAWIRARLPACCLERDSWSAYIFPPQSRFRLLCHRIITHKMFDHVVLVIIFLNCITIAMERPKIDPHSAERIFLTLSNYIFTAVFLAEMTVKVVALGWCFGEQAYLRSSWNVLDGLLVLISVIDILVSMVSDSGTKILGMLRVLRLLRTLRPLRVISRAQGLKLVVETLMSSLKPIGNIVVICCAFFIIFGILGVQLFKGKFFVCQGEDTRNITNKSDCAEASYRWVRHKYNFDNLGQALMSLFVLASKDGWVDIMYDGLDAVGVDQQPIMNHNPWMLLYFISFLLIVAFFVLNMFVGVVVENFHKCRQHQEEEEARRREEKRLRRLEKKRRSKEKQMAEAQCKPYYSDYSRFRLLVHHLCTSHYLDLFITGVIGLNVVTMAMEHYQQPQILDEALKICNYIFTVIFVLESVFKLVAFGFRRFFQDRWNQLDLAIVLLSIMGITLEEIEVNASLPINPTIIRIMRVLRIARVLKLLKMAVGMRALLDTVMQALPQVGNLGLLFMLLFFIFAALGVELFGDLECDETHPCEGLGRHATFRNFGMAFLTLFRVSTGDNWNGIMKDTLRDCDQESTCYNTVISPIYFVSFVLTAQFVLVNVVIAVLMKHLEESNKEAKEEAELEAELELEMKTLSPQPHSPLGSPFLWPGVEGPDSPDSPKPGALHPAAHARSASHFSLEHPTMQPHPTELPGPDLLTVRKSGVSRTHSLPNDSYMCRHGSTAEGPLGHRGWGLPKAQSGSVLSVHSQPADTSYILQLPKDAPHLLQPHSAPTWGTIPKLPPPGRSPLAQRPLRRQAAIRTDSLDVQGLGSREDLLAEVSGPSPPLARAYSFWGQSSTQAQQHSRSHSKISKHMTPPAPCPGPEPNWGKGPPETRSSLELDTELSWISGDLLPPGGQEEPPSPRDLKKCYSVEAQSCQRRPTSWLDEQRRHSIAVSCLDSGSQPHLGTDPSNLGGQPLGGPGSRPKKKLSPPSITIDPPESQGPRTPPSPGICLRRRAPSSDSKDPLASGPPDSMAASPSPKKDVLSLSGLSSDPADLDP
smiles,measurement,setting,value
[Cl][Ni][Cl] [NiCl2],block of peak current,[1],25+/−6%
same,current blocked relative to 200 μM,"[1]; 1 mM, same cell",about twice the current blocked by 200 μM Ni^2+
same,sensitivity of human alpha1G-c to block,[1]; expressed in oocytes,relatively insensitive
same,IC50,[2],~6 µM
same,sensitivity,[3]; as opposed to other T-type channels,very low sensitivity
"O=C(O)c1c2ccccc2cc2ccccc12 [9-AC, anthracene-9-carboxylic acid]",block of peak human alpha1G-c currents,[1],30+/−3%
"O=C(O)c1cc([N+](=O)[O-])ccc1NCCCc1ccccc1 [NPPB, 5-Nitro-2-(3-phenylpropylamino)benzoic acid]",block of human alpha1G-c currents,[1]; 20 μM,22+/−6%
same,block of peak human alpha1G-c currents,[1],55+/−7%
same,block of peak current,[1],89+/−7%
same,sensitivity of human alpha1G-c to block,[1]; expressed in oocytes,blocked halpha1G-c currents
"COCC(=O)O[C@]1(CCN(C)CCCc2nc3ccccc3[nH]2)CCc2cc(F)ccc2[C@@H]1C(C)C [mibefradil, (1S,2S)-2-[2-[[3-(1H-benzimidazol-2-yl)propyl]methyl-amino]ethyl]-6-fluoro-1-isopropyl-1,2,3,4-tetrahydronaphthalen-2-yl methoxyacetate]",IC50,[3]; most prominent (low affinity) site,~0.4 µM
same,maximal block,[4],~40%
same,IC50,[4]; majority of T type currents,~500 µM
CCC1(C)CC(=O)NC1=O (stereo not shown) [ethosuximide],Kd,[5],15 µM
same,maximal block,[6],100%
same,Kd,[6]; read-out: Kd for T-current,7 µM
same,reversible block of peak currents,"[1]; 600 μM, −100 mV between voltage pulses, ND96 and Ba2+ salines similar",26+/−−3%
same,sensitivity of human alpha1G-c to block,[1]; expressed in oocytes,sensitive
same,sensitivity of all components of the LVCC,[7],insensitive
same,block of human alpha1H currents,[2]; 300 μM,~7%
same,sensitivity,[2],insensitive
same,effect on T-currents,[4]; in 25% of the TCs tested,no effect
N=C(N)NC(=O)c1nc(Cl)c(N)nc1N [amiloride],block of peak currents,[1],23+/−4%
same,sensitivity of human alpha1G-c to block,[1],sensitive
same,IC50,[2],~20 µM
same,EC50,[8],≥ 50 µM
"O=S(=O)(O)c1cc(N=C=S)ccc1C=Cc1ccc(N=C=S)cc1S(=O)(=O)O [DIDS, 4,4′-diisothiocyanatostilbene-2.2′-disulfonic acid]",block of peak human alpha1G-c currents,[1],16+/−13%
same,effect on peak human alpha1G-c currents,[1],no effect
[Cd+2] [Cd^2+],block of peak human alpha1G-c currents,[1],44+/−9%
O=C(O)c1cccnc1Nc1cccc(C(F)(F)F)c1 [niflumic acid],block of peak human alpha1G-c currents,[1],0+/−2%
same,effect on peak human alpha1G-c currents,[1],no effect
